From patent US20110038856A1, “METHODS OF TREATING NEOPLASTIC, AUTOIMMUNE AND INFLAMMATORY DISEASES” (Seattle Genetics, Inc., priority 2006, published 2011)

Key:
[1] = tested on: primary human macrophages; assay: Cytokine/chemokine production by primary human macrophages; format: cell-based; conditions: for production of IL-6, TNF-α, RANTES, and MCP-1: pre-incubation 3 hours with antibody, 24 hours
Protocol: Primary human macrophages were generated from long-term cultures of freshly isolated human peripheral blood mononuclear cells (PBMCs; AllCells, Emeryville, Calif. or LifeBlood, Memphis, Tenn.). PBMCs were cultured in tissue culture flasks in RPMI 1640 medium containing glutamine (Invitrogen, Grand Island, N.Y.), 10% heat-inactivated FBS, and antibiotics for 3 to 4 hours. Non-adherent cells were removed by washing with PBS and the adherent cells were cultured in OptiMem-1 medium (Invitrogen) containing 1% heat-inactivated FBS for 1 to 2 hours. The cells were washed with PBS and cultured for 10 to 14 days in X-VIVO-15 medium (Cambrex Bio Science, Walkersville, Md.) containing 500 U/ml GM-CSF (Peprotech, Rocky Hill, N.J.). […]

HL-60 cells = assay: Mouse AML model, HL-60 cells injected intravenously; format: in vivo, mice; conditions: q4d×5, ip, FIG. 24
Protocol: Mice were implanted with an AML cell line, HL-60, as follows: 5 million HL-60 cells were injected intravenously. The mice were treated with lintuzumab (10 mg/kg, q4d×4, ip), cytarabine (1 mg/kg, 5 mg/kg or 25 mg/kg, q1d×10, or 50 mg/kg or 100 mg/kg, q2d×5, ip) or lintuzumab with cytarabine (dosed as described previously). Treatment began on day one.
To confirm the data of the in vitro study, mice were implanted with an AML cell line, HL-60, as follows: 5 million HL-60 cells were injected intravenously. […] Treatment began on day one.

In the case of “SGN-33: anti-CD33 antibody, a humanized version of mouse monoclonal antibody M195”, the “levels of IL-6, TNF-α, MCP-1, and RANTES” value ([1]; macrophages treated 1 h prior to IFN-γ, LPS, or TGF-β, supernatants 18 h later, FIG. 18) was “significantly reduced”, the “production of IL-6, TNF-α, RANTES, and MCP-1” value ([1]; in response to IFN-γ, FIG. 6) was “reduced production” and the “production of IL-6, TNF-α, RANTES, and MCP-1” value ([1]; in response to conditioned media from RPMI-8226 and Karpus-620 cells, FIG. 7) was “reduced production”. For the same substance, the “levels of TNF-α” value ([1]; primary human macrophages, various doses of SGN-33, 1 hr prior to IFN-γ, 18 h, p<0.05, FIG. 20) was “significantly reduced levels of TNF-α in a dose-dependent manner”, the survival rate (HL-60 cells; SGN-33 30 mg/kg) was about 85% and the survival rate (HL-60 cells; SGN-33 3 or 10 mg/kg) was about 50%.
